Results: PMC3163375, “Design, Synthesis and Biological Evaluation of New 5,5-Diarylhydantoin Derivatives as Selective Cyclooxygenase-2 Inhibitors” (Scientia Pharmaceutica, 2011)

Experiments:
ovine COX-1 = target: T1, ovine COX-1 (Ovis aries, UniProt P05979); experiment: In vitro COX-1 enzyme inhibition, chemiluminescent enzyme assay kit (Cayman); assay type: biochemical; details: ovine COX-1/COX-2 assay kit; means of two determinations, deviation < 10% of the mean
T1 construct: purchased Cayman Chemical, Ann Arbor, MI, USA
T1 sequence (P05979 25-600): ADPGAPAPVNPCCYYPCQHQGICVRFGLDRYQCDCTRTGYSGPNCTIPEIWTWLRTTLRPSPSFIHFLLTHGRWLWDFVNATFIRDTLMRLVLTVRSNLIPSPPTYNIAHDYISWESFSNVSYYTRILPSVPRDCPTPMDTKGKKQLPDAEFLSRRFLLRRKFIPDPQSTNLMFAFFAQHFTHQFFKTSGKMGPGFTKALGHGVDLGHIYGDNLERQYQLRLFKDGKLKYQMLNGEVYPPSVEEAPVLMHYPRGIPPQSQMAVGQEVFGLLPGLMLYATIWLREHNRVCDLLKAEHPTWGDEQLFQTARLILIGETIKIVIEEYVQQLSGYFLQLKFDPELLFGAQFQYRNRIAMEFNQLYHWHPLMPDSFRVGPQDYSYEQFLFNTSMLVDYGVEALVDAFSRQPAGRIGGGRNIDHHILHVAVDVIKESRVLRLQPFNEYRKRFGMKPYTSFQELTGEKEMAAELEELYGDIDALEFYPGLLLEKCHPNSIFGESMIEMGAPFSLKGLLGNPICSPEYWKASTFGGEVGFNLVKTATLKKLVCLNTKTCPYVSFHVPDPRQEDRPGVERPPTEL
Description: (§1) All of the prepared 5,5-diarylhydantoin derivatives having different substituents at the N-3 hydantoin ring were evaluated to investigate the effect of different alkyls on COX-2 selectivity and potency. The ability of the 5,5-diarylhydantoin 4–8 to inhibit the COX-1 and COX-2 isozymes was determined using chemiluminescent enzyme assays (see enzyme inhibition data in Table 1.) according to our previously reported method.
(§2) The ability of the test compounds listed in Table 1 to inhibit ovine COX-1 and COX-2 (IC50 value, μM) was determined using chemiluminescent enzyme assays kit (Cayman Chemical, Ann Arbor, MI, USA) according to our previously reported method.

ovine COX-2 = target: T2, ovine COX-2 (Ovis aries, UniProt P79208); experiment: In vitro COX-2 enzyme inhibition, chemiluminescent enzyme assay kit (Cayman); assay type: biochemical; details: for Selectivity index (SI): In vitro COX-2 selectivity index (COX-1 IC50/COX-2 IC50); for IC50: ovine COX-1/COX-2 assay kit, means of two determinations, deviation < 10% of the mean
T2 construct: purchased Cayman Chemical, Ann Arbor, MI, USA
T2 sequence (P79208 17-603): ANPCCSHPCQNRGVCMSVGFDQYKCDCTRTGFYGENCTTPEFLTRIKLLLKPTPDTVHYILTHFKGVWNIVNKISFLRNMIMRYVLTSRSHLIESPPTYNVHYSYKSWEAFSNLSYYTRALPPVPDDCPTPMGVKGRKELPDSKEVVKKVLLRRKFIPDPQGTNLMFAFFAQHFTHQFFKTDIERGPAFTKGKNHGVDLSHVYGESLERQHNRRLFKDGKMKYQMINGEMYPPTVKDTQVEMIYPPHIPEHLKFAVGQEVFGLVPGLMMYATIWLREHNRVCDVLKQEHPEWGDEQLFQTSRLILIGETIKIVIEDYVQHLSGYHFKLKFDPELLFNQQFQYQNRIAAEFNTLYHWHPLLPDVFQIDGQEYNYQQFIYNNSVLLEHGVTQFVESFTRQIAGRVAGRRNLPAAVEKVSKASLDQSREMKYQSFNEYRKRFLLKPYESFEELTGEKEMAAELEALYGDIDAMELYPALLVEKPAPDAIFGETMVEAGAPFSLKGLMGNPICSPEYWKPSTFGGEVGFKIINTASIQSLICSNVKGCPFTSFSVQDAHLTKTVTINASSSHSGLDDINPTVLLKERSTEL
Description: as §1, §2

Row | Structure (SMILES) | IC50 (ovine COX-1) | Selectivity index (SI) (ovine COX-2) | IC50 (ovine COX-2) | melting point
1 | CS(=O)(=O)c1ccc(C2(c3ccccc3)NC(=O)NC2=O)cc1 (stereo not shown) [Compound 4, 5-[4-(Methylsulfonyl)phenyl]-5-phenylimidazolidine-2,4-dione] | > 100 µM | >1298 | 0.077 µM | 
2 | C=CCN1C(=O)NC(c2ccccc2)(c2ccc(S(C)(=O)=O)cc2)C1=O (stereo not shown) [Compound 8, 5-[4-(Methylsulfonyl)phenyl]-5-phenyl-3-(prop-2-en-1-yl)imidazolidine-2,4-dione] | 15 µM | 151.1 | 0.099 µM | 129 to 130 °C

Next, values leading:

Row | IC50 (ovine COX-1) | Selectivity index (SI) (ovine COX-2) | IC50 (ovine COX-2) | melting point | Structure (SMILES)
3 | 22.7 µM | 280.1 | 0.081 µM | 212 to 214 °C | CN1C(=O)NC(c2ccccc2)(c2ccc(S(C)(=O)=O)cc2)C1=O (stereo not shown) [Compound 5, 3-Methyl-5-[4-(methylsulfonyl)phenyl]-5-phenylimidazolidine-2,4-dione]
4 | 20.2 µM | 206.2 | 0.098 µM | 91 to 92 °C | CCN1C(=O)NC(c2ccccc2)(c2ccc(S(C)(=O)=O)cc2)C1=O (stereo not shown) [Compound 6, 3-Ethyl-5-[4-(methylsulfonyl)phenyl]-5-phenylimidazolidine-2,4-dione]
5 | 12 µM | 70.2 | 0.171 µM | 82 to 83 °C | CCCN1C(=O)NC(c2ccccc2)(c2ccc(S(C)(=O)=O)cc2)C1=O (stereo not shown) [Compound 7, 5-[4-(Methylsulfonyl)phenyl]-5-phenyl-3-propylimidazolidine-2,4-dione]
